Test results published in ChEMBL document CHEMBL3124838, “Discovery of 6-aryl-azabenzimidazoles that inhibit the TBK1/IKK-ε kinases” (Bioorg Med Chem Lett, 2014).

Legend:
[1] = biological target: Macrophage colony-stimulating factor 1 receptor (Homo sapiens) (UniProt P07333); test: Inhibition of human FMS assessed as residual activity at 1 uM relative to control
[2] = biological target: Focal adhesion kinase 1 (Homo sapiens) (UniProt Q05397); test: Inhibition of human FAK assessed as residual activity at 1 uM relative to control
[3] = biological target: T1, Activin receptor type-1B (Homo sapiens) (UniProt P36896); test: Inhibition of human ALK4 assessed as residual activity at 1 uM relative to control
T1 sequence (whole entry): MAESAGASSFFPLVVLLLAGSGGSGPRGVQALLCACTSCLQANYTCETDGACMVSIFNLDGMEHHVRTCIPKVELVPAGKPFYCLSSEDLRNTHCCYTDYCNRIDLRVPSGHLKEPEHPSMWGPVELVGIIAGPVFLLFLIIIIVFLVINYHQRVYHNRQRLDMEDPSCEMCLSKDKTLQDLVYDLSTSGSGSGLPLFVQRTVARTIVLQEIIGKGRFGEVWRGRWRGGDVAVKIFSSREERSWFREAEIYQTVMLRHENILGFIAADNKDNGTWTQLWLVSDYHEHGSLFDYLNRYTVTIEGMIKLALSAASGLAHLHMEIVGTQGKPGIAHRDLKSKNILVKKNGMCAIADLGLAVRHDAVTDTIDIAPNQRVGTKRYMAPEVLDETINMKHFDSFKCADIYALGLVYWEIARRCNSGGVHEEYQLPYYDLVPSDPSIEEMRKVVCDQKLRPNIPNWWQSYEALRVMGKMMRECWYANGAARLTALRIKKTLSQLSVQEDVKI

[4] = biological target: Tyrosine-protein kinase Fyn (Homo sapiens) (UniProt P06241); test: Inhibition of human FYN assessed as residual activity at 1 uM relative to control
[5] = biological target: T2, Serine/threonine-protein kinase ULK2 (Homo sapiens) (UniProt Q8IYT8); test: Inhibition of human ULK2 assessed as residual activity at 1 uM relative to control
T2 sequence (whole entry): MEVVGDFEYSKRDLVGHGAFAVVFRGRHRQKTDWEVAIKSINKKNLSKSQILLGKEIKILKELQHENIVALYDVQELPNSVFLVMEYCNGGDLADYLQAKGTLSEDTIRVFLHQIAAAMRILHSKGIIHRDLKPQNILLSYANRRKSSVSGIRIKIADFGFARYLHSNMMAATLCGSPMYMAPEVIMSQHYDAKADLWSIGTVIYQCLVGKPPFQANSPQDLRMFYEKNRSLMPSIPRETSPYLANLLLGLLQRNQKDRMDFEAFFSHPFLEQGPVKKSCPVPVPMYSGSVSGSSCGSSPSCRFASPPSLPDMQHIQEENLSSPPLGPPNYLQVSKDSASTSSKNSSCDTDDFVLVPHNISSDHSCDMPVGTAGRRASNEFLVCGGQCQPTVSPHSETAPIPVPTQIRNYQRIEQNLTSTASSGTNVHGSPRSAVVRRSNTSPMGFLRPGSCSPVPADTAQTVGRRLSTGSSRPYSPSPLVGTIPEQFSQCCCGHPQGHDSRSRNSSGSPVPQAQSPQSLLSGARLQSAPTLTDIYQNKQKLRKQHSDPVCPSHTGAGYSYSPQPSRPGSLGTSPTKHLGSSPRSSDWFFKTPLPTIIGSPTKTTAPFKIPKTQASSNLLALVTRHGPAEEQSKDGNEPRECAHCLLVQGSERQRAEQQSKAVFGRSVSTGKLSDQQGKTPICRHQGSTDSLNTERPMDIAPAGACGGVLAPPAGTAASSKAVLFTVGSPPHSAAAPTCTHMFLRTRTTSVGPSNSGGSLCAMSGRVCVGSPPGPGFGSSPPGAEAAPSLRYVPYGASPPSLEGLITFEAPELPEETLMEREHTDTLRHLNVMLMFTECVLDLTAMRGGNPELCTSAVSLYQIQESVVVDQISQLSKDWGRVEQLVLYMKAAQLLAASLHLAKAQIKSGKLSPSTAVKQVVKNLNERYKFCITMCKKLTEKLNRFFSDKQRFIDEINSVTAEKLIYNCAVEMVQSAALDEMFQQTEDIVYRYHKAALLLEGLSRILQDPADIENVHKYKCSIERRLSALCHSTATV

[6] = biological target: T3, Aurora kinase C (Homo sapiens) (UniProt Q9UQB9); test: Inhibition of human Aurora-C assessed as residual activity at 1 uM relative to control
T3 sequence (whole entry): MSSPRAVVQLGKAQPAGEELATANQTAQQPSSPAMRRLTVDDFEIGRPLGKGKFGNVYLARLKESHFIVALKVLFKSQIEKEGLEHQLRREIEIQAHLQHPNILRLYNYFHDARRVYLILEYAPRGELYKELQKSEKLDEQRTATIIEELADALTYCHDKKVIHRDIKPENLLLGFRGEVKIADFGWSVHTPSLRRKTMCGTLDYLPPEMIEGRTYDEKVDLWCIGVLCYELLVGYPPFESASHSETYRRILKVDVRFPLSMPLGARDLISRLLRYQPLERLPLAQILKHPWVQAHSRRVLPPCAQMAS

[7] = biological target: Misshapen-like kinase 1 (Homo sapiens) (UniProt Q8N4C8); test: Inhibition of human MINK assessed as residual activity at 1 uM relative to control
[8] = biological target: T4, Inhibitor of nuclear factor kappa-B kinase subunit beta (Homo sapiens) (UniProt O14920); test: Inhibition of human IKKbeta assessed as residual activity at 1 uM relative to control
T4 sequence (whole entry): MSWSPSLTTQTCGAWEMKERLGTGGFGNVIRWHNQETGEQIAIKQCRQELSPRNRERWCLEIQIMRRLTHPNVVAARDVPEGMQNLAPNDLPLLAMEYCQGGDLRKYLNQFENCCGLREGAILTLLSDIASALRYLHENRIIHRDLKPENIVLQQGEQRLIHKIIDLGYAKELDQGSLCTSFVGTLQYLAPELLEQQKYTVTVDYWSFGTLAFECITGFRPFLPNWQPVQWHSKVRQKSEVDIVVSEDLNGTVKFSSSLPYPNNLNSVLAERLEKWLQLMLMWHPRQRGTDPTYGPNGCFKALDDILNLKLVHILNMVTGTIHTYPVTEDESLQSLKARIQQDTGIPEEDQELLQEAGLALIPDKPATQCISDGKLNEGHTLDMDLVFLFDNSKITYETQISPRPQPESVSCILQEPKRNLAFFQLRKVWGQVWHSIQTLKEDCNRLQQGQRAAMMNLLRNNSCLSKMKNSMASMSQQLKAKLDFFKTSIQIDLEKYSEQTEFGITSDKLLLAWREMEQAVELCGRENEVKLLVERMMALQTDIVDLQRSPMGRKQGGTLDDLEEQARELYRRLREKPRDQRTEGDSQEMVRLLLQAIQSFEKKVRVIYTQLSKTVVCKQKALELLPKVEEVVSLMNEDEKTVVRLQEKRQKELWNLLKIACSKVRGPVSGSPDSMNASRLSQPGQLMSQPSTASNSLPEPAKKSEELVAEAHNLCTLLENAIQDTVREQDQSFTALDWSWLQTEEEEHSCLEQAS

[9] = biological target: Protein kinase C theta type (Homo sapiens) (UniProt Q04759); test: Inhibition of human PKC-theta assessed as residual activity at 1 uM relative to control
Protein kinase C theta type (Homo sapiens), sequence (Q04759 whole entry, looked up): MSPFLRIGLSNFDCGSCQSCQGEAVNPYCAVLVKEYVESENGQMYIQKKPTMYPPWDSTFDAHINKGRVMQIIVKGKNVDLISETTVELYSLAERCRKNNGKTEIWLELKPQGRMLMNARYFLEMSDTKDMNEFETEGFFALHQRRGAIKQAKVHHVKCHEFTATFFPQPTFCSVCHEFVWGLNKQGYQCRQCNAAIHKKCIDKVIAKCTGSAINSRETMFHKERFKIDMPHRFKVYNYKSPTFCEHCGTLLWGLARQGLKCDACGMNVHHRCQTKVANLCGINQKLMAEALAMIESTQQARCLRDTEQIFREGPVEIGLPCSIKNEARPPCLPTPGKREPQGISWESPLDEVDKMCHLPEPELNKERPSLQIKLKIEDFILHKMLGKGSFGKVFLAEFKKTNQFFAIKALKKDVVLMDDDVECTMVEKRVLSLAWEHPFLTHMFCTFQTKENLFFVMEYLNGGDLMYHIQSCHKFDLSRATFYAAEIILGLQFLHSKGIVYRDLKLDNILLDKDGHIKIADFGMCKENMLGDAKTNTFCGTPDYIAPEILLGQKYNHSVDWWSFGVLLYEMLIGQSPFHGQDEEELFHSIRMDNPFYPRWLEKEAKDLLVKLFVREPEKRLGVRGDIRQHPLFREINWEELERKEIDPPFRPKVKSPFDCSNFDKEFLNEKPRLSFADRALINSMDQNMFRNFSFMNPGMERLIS

Macrophage colony-stimulating factor 1 receptor (Homo sapiens), sequence (P07333 whole entry): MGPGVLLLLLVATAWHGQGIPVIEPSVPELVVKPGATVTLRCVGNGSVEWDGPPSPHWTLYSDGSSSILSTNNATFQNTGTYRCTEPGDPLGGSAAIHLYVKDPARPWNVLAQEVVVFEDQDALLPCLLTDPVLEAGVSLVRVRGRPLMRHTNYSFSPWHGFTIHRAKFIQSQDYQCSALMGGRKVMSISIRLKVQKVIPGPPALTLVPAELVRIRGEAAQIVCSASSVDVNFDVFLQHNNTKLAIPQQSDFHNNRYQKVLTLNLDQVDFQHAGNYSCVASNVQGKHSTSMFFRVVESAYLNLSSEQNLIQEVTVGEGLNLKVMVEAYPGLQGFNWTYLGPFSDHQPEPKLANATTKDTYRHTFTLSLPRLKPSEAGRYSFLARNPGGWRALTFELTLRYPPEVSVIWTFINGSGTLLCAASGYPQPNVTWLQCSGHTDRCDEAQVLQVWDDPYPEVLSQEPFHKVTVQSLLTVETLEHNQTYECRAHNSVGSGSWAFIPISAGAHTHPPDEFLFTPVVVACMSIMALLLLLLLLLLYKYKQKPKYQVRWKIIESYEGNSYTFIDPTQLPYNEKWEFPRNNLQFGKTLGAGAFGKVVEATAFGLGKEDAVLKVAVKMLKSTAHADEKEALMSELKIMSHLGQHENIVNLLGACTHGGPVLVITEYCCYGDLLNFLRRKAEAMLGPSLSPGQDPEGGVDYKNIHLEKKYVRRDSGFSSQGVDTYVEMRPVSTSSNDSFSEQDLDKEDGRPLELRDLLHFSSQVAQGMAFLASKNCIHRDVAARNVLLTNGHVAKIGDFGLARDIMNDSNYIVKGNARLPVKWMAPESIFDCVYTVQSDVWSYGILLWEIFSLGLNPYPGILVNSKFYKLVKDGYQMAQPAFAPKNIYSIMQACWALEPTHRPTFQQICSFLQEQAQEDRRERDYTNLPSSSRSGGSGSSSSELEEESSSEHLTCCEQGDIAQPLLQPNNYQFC
Misshapen-like kinase 1 (Homo sapiens), sequence (Q8N4C8 whole entry, looked up): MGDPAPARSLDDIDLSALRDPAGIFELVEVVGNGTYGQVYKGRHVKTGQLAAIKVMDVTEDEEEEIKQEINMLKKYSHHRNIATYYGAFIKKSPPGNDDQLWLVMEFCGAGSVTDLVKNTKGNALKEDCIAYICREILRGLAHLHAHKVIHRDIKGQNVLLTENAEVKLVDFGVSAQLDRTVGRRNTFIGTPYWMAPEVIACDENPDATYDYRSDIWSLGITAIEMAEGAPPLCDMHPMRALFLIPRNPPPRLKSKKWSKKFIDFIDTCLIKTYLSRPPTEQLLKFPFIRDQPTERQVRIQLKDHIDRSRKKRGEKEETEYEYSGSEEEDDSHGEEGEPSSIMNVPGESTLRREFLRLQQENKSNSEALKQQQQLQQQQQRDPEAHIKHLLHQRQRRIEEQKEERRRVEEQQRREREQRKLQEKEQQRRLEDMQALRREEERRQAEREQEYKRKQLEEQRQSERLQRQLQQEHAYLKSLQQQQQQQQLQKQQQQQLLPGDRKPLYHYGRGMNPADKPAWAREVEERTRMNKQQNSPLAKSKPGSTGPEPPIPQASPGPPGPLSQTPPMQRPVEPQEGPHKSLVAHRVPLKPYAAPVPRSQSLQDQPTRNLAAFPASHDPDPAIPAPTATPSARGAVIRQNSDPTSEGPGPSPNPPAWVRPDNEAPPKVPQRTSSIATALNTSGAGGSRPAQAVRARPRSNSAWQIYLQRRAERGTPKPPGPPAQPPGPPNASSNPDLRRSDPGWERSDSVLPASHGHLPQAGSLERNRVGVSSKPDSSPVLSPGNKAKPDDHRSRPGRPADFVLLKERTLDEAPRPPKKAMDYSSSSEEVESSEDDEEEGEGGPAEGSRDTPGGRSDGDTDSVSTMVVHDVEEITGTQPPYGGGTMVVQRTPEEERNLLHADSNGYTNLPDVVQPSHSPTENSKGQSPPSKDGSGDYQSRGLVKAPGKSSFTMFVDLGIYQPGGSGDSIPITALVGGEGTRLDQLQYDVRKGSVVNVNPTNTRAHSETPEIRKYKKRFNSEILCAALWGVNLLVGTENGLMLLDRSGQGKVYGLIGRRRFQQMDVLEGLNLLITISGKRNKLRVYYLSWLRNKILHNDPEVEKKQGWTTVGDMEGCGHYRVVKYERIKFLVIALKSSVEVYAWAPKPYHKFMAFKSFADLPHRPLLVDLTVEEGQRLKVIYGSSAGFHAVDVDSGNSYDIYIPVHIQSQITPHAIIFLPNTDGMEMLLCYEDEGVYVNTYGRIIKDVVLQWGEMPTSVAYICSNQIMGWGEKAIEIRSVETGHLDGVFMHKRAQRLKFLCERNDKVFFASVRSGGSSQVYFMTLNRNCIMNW
Tyrosine-protein kinase Fyn (Homo sapiens), sequence (P06241 2-537 limits assumed): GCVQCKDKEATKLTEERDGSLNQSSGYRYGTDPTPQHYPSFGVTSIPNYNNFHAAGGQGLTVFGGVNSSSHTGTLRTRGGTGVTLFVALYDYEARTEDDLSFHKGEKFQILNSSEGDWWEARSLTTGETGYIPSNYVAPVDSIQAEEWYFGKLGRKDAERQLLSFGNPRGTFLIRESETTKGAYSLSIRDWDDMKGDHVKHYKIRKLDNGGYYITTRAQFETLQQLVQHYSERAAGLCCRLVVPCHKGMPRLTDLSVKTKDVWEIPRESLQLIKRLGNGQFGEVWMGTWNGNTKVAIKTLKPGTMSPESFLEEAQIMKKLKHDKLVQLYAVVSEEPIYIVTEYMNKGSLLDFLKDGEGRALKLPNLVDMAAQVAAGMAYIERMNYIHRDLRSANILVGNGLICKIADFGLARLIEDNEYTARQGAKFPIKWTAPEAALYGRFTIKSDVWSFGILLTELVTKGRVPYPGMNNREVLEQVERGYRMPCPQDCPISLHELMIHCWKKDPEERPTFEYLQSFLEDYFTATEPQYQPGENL
Focal adhesion kinase 1 (Homo sapiens), sequence (Q05397 2-1052 limits assumed): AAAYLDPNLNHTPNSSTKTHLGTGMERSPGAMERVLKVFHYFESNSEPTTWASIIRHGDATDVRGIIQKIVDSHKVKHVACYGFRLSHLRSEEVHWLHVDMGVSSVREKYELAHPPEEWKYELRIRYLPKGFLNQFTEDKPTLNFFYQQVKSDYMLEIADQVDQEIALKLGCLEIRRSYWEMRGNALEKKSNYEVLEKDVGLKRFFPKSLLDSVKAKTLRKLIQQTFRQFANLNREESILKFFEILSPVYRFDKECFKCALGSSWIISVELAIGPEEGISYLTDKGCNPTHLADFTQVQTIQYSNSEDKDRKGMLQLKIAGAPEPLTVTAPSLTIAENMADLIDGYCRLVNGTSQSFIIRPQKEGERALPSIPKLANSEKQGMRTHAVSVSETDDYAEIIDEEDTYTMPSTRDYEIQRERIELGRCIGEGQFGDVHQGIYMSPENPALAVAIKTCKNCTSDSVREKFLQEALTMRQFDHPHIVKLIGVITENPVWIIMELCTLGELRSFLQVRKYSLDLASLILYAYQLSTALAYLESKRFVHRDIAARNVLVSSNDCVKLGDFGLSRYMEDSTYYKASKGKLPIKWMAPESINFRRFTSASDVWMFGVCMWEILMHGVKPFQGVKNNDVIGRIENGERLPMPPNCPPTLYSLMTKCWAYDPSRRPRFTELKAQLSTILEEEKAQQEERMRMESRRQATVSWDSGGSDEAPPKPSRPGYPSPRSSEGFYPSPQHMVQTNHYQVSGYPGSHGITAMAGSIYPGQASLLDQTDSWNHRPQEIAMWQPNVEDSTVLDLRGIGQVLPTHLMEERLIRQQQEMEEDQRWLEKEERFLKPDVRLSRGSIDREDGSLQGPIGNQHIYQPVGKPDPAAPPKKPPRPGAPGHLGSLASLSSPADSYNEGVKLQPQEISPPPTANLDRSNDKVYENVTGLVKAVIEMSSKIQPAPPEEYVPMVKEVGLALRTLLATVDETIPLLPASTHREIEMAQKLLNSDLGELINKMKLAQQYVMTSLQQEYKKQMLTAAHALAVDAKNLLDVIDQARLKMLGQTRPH

SMILES	Activity [1] [%]	Activity [2] [%]	Activity [3] [%]	Activity [4] [%]	Activity [5] [%]	Activity [6] [%]	Activity [7] [%]	Activity [8] [%]	Activity [9] [%]
COc1ccc(-c2nc3cc(-c4csc(C(=O)NCC(C)(C)C)c4)cnc3[nH]2)cc1	70	80	85	67	53	76	82	99	90
COc1ccc(-c2nc3cc(-c4csc(C(=O)NCCC(C)C)c4)cnc3[nH]2)cc1	70	90	85	33	40	77	86	95	98
COc1ccc(-c2nc3cc(-c4csc(C(=O)NCC(C)C)c4)cnc3[nH]2)cc1	63	91	96	34	42	76	99	95	89
